Measured values reported in patent US20010027175A1, “Use of certain drugs for treating nerve root injury” (priority 1998, published 2001).

What was measured:
[1] = biological target: inducible nitrogen oxide synthetase (Homo sapiens, UniProt P35228); details: by inhibiting inducible nitrogen oxide synthetase; cited from earlier work
[2] = system: nucleus pulposus-induced reduction of nerve root conduction velocity (sacrococcygeal cauda equina); test: Series-2: nerve root conduction velocity three days after autologous nucleus pulposus application to the cauda equina; type: in vivo; details: pig, mean ± SD
Method: Series-2: Nucleus pulposus was harvested from lumbar discs and applied to the sacrococcygeal cauda equina in 13 pigs autologously. […] Three days after the application the nerve root conduction velocity was determined over the application zone by local electrical stimulation.
Thirteen pigs, (body weight 25-30 kg) received an intramuscular injection of 20 mg/kg body weight of Ketala (ketamine 50 mg/ml, Parke-Davis, Morris Plains, N.J.) and an intravenous injection of 4 mg/kg body weight of Hypnodil^R (methomidate chloride 50 mg/ml, AB Leo, Helsingborg, Sweden) and 0.I mg/kg body weight of Stresnil^R (azaperon 2 mg/ml, Janssen Pharmaceutica, Beerse, Belgium). […]
Three days after the application, the pigs were reanaesthetized by an intramuscular injection of 20 mg/kg body weight of Ketalar^R and an intravenous injection of 35 mg/kg body weight of Pentothal^R (Thiopental sodium, Abbott lab, Chicago, Ill.). […] Local tissue temperature was continuously monitored and maintained at 37.5-38.0° C. by means of a heating lamp. […]
The person performing the neurophysiologic analyses was unaware of the experimental protocol for the individual animal, and after finishing the complete study the data were arranged in the three experimental groups and statistical differences between the groups were assessed by Student's t-test. […]

[3] = system: nucleus pulposus-related effects on adjacent nerve roots; details: literature refs 38, 2, 3, 69; cited from earlier work
[4] = system: nucleus pulposus-induced reduction of nerve root conduction velocity (sacrococcygeal cauda equina); test: Series-3: nerve root conduction velocity seven days after autologous nucleus pulposus application to the cauda equina; type: in vivo; details: pig; for NCV (m/s ± SD): seven days after nucleus pulposus application, mean ± SD; for block of nucleus pulposus induced nerve injury (in words): seven days, systemic treatment
Method: Series-3: Thirteen pigs had autologous nucleus pulposus placed onto their sacrococcygeal cauda equina similar to series-2. Five pigs (bodyweight 25 kg) received Remicade^R (infliximab) 100 mg i.v. preoperatively, and 8 pigs received EnbrelR (etanercept) 12.5 mg s.c. preoperatively and additionally 12.5 mg s.c. three days after the operation. Seven days after the nucleus pulposus-application the nerve root conduction velocity was determined over the application zone by local electrical stimulation according to series-2. Five pigs (bodyweight 25 kg) received the human/murine monoclonal antibody Remicade^R (infliximab, […]) 100 mg i.v. preoperatively, and 8 pigs received Enbrel^R (etanercept, […]) 12.5 mg s.c. preoperatively and additionally 12.5 mg s.c. three days after the operation. Seven days after the nucleus pulposus-application the nerve root conduction velocity was determined over the application zone by local electrical stimulation according to series-2. […] No non-treated animals were included in the series-3 due to the pre-existing knowledge of nerve conduction velocity after seven days of either nucleus pulposus or fat (control) application. The statistical difference between the groups, infliximab, and etanercept, nucleus pulposus without treatment (positive control from previous data) and application of retroperitoneal fat (negative control from previous data) was assessed by using ANOVA and Fisher's PLSD at 5%.

Sequence of inducible nitrogen oxide synthetase (P35228 whole entry): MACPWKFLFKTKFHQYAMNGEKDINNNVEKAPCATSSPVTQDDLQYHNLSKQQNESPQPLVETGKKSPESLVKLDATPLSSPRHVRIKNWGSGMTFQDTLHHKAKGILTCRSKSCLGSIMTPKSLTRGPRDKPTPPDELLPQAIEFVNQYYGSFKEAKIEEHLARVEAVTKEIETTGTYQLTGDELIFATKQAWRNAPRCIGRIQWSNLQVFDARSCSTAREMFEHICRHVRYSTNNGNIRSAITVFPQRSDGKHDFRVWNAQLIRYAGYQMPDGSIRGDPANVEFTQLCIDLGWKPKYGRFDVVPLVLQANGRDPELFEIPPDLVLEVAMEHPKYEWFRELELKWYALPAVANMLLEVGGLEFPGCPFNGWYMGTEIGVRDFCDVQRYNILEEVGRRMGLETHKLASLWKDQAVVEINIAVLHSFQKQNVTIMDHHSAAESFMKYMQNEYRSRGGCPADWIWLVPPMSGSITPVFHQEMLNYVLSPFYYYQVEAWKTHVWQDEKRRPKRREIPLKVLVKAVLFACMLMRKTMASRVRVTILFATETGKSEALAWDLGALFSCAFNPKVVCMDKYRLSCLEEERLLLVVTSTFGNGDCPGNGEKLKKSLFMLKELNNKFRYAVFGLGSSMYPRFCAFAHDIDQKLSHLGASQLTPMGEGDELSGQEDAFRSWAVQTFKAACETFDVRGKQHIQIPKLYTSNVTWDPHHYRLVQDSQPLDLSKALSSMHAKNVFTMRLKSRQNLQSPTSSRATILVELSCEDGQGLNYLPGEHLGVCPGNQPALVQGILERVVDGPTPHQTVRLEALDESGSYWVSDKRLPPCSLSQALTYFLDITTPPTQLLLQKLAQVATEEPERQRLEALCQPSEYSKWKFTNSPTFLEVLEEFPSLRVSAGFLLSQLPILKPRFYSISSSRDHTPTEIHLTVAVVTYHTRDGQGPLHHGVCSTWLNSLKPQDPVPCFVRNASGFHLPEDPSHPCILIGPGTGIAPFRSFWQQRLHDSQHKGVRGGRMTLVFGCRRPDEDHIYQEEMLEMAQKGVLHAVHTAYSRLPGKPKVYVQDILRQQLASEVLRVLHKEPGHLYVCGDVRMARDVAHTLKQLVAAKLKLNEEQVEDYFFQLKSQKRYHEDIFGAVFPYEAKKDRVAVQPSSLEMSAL

In the case of N=C(N)NN [Aminoguanidine], the “inhibition of release of nitrogen oxide (NO) at nerve root injuries (in words)” value [1] is listed as “inhibit the release of nitrogen oxide (NO)”.
For C[C@H]1c2cccc(O)c2C(=O)C2=C(O)[C@]3(O)C(=O)C(C(N)=O)=C(O)[C@@H](N(C)C)[C@@H]3[C@@H](O)[C@@H]21 [Doxycycline, doxycycline], the “NCV (m/s ± SD)” value [2] was 76 ± 9 m/s.
For COc1ccc2c(c1)c(CC(=O)O)c(C)n2C(=O)c1ccc(Cl)cc1 [indomethacin], the “block of nucleus pulposus-related effects (in words)” value [3] is given as “slightly less efficiently”.
In the case of CCN(CC)CC(=O)Nc1c(C)cccc1C [lidocaine], the “block of nucleus pulposus-related effects (in words)” value [3] is listed as “slightly less efficiently”.
In the case of cyclosporin A, the “block of nucleus pulposus-related effects (in words)” value [3] is listed as “blocked efficiently”.
In the case of etanercept [Embrel^R], the “NCV (m/s ± SD)” value [4] is reported as 78 ± 14 m/s and the “block of nucleus pulposus induced nerve injury (in words)” value [4] is reported as “blocked the nucleus pulposus induced nerve injury efficiently”.
With infliximab [Remicade^R] the “NCV (m/s ± SD)” value [4] was 79 ± 15 m/s and the “block of nucleus pulposus induced nerve injury (in words)” value [4] was “blocked the nucleus pulposus induced nerve injury efficiently”.
